Measured values from publication PMC7866984, “Molecular Structure, In Vitro Anticancer Study and Molecular Docking of New Phosphate Derivatives of Betulin” (Molecules, 2021).
Where two headings read alike, the source gives them in different places.

Key:
[1] = RP-TLC experimental lipophilicity; type: physicochemical; settings: for RM0 / logPTLC: RP-TLC; for RM0: acetone/Tris buffer pH 7.4, extrapolated to zero acetone; for logPTLC: from RM0 by calibration equation; for -b: slope of regression plot RM = RM0 + bC
Description: Lipophilicity is an important physicochemical parameter related to the biological activity of compounds. This descriptor, contained in Lipiński’s rule of five, concerns the transport of a compound through the biological membrane system and the formation of a compound–receptor complex. To assess the lipophilic nature of triterpenoids 3–5, 6a–6e, and 7a–7e, the reverse phase chromatography (RP-TLC) method was used (chromatographic procedure by RP-TLC is included in the Supplementary Materials). The theoretical characteristics of the chromatographic parameters (RM0, log PTLC) of the tested derivatives were also performed. […]
Chromatographic procedure by RP-TLC
The experimental lipophilicity parameters was determined using reversed-phase thin-layer chromatography (RP-TLC). The stationary phase was an aluminium backed silica gel RP-18 F254 S plates (Merck, Darmstadt, Germany). Chloroform solutions of reference compounds […]
(acetanilide, 4-bromoacetophenone, benzophenone, anthracene, DDT) and triterpenes 3-5, 6a-6e and 7a-7e were spotted on to the plates in the amount of 2 µL. The chromatograms were performed in triplicate for each compound. The chromatographic chambers were filled of mobile phases consisting of a mixture of acetone (POCh, Gliwice, Poland) and aqueous solution of buffer Tris [(tris-hydroxymethyl)aminomethane] (Fluka, Loughborough, 0.2 M, pH 7.4). The percent acetone volume was varied within the range of 90-60%, in 5% increments. The spots of compounds were visualized by spraying the plates with 10% ethanolic solution of sulphuric acid (VI) and heating for 3 min at 110°C [60]]. The RM values were calculated by the equation RM = log (1/Rf-1) on the basis of average Rf values. The RM0 parameters were obtained by extrapolating on the acetone content to zero, according to the equation RM = RM0 + bC (C – the percentage concentration of acetone in the mobile phase, b – the slope of the regression plot).
The experimental lipophilicity as log PTLC for triterpenes 3-5, 6a-6e and 7a-7e was calculated […]
obtained on the correlation between the literature log Plit values and the experimental RM0 values […]
Table S5. The theoretical values of lipophilicity for tested compounds 3-5, 6a-6e and 7a- […]
Table S6. The correlation matrix for theoretically obtained lipophilicity parameters of compounds 3-5, 6a-6e and 7a-7e. […]

[2] = test system: amelanotic melanoma (C-32) cells; test: WST-1 cell viability assay, C-32; type: cell-based, human; settings: WST-1, 72 h
Procedure: (§1) Evaluation of the effect of new betulin derivatives on the viability of the cultured cells was performed using the WST-1(water soluble tetrazolium salt) assay. Betulin 1 and cisplatin were used as the reference compounds.
(§2) The synthesized compounds and references were tested for cytotoxic activity in vitro against human cancer cell lines such as amelanotic melanoma (C-32, ATCC, Rockville, MD, USA), glioblastoma (SNB-19, DSMZ, Braunschweig, Germany), and breast cancer (T47D, and MDA-MB-231, ATCC, Rockville, MD, USA). Cell cultures were maintained using DMEM (Lonza, Basel, Switzerland) supplemented with 10% fetal bovine serum (FBS) (Biological Industries Cromwell, CT, USA) and penicillin (10,000 U/mL) –streptomycin (10 mg/mL) mix (Lonza, Basel, Switzerland).
(§3) Cultures were performed in 96-well plates (Nunc Thermo Fisher Scientific, Waltham, MA, USA). Cells were seeded at 5 × 10^4/well and incubated for 24 h (at 37 °C, 5% CO2, constant humidity). Then, the medium was replaced with a fresh one with the addition of test compounds in the concentration: 25; 12.5; 6.25; 3.12; 1.56; 0.78; 0.39; 0 µg/mL and incubated again for a further 72 h. After this time, the WST-1 test (Roche Molecular Biochemicals, Mannheim, Germany) was performed to assess the metabolic activity of the cells. The principle of the WST-1 colorimetric test is based on the ability of live cells to decompose bright red tetrazole salts of WST-1 to dark red formazan. The reaction is mediated by mitochondrial dehydrogenases and correlates with the number of cells and their metabolic activity. The absorbance was measured at λ = 450 nm with a UVM340 microplate reader (Biogenet, Józefów, Poland). Results were expressed as a mean value of at least three independent experiments performed in triplicate.

[3] = test system: glioblastoma (SNB-19) cells; test: WST-1 cell viability assay, SNB-19; type: cell-based, human; settings: for IC50: WST-1, 72 h
Procedure: as §1, §2, §3

[4] = test system: breast cancer T47D cells; test: WST-1 cell viability assay, T47D; type: cell-based, human; settings: for IC50: read-out: IC50 ± SD, T47D
Procedure: as §1, §2, §3

[5] = test system: breast cancer MDA-MB-231 cells; test: WST-1 cell viability assay, MDA-MB-231; type: cell-based, human; settings: for IC50: read-out: IC50 ± SD, MDA-MB-231
Procedure: as §1, §2, §3

[6] = Homo sapiens, C32, 72 h, read-out: IC50 ± SD, C-32
[7] = Homo sapiens, SNB-19, 72 h, read-out: IC50 ± SD, SNB-19
[8] = Homo sapiens, C32, 72 h, Table 5, betulonic/betulinic acid derivatives, read-out: IC50, C-32
[9] = Homo sapiens, SNB-19, 72 h, Table 5, betulonic/betulinic acid derivatives, read-out: IC50, SNB-19

## C=C(CO)[C@@H]1CC[C@]2(COC(C)=O)CC[C@]3(C)C(CCC4[C@@]5(C)CC[C@H](OC(C)=O)C(C)(C)C5CC[C@]43C)C12 (some centres unmarked) [Compound 3, 3,28-Diacetyl-30-hydroxybetulin]
[1]
  RM0: 5.655
  logPTLC: 7.362
  -b: 0.064

## C=C(COP(=O)(OCC)OCC)[C@@H]1CC[C@]2(COC(=O)C#CC)CC[C@]3(C)C(CCC4[C@@]5(C)CC[C@H](OC(=O)C#CC)C(C)(C)C5CC[C@]43C)C12 (some centres unmarked) [Compound 6b, 3,28-Di(2-butynoyl)-30-diethoxyphosphoryloxybetulin]
[2]; [6]
  IC50: > 50 µM
[3]; [7]
  IC50: 4.65 ± 0.51 µM
[4]; Homo sapiens, T47D, 72 h
  IC50: > 50 µM
[5]; Homo sapiens, MDA-MB-231, 72 h
  IC50: 21.2 ± 1.24 µM
[1]
  RM0: 6.884
  logPTLC: 8.917
  -b: 0.078
other
  melting point: 66 to 70 °C

## CCOP(=O)(C=C(C)C1CCC2(C(=O)O)CCC3(C)C(CCC4C5(C)CCC(=O)C(C)(C)C5CCC43C)C12)OCC (centres unmarked) [R=29-P(O)(OC2H5)2, R1=O=, reference compound]
[2]; [8]
  IC50: 45.5 ± 3.72 µM
[3]; [9]
  IC50: 1.64 ± 0.18 µM

## C#CC(=O)OC[C@]12CC[C@@H](C(=C)COP(=O)(OCC)OCC)C1C1CCC3[C@@]4(C)CC[C@H](OC(=O)C#C)C(C)(C)C4CC[C@@]3(C)[C@]1(C)CC2 (some centres unmarked) [Compound 6a, 30-Diethoxyphosphoryloxy-3,28-dipropynoylbetulin]
[4]; Homo sapiens, T47D, 72 h
  IC50: 9.5 ± 0.74 µM
[1]
  RM0: 6.893
  logPTLC: 8.929
  -b: 0.080
other
  melting point: 127 to 130 °C

## C=C(COP(=O)(OCC)OCC)[C@@H]1CC[C@]2(COC(=O)C#CC3CC3)CC[C@]3(C)C(CCC4[C@@]5(C)CC[C@H](O)C(C)(C)C5CC[C@]43C)C12 (some centres unmarked) [Compound 7c, 28-(2-Cyclopropylpropynoyl)-30-diethoxyphosphoryloxybetulin]
[2]; [6]
  IC50: 11.9 ± 0.52 µM
[3]; [7]
  IC50: 6.29 ± 0.12 µM
[4]; Homo sapiens, T47D, 72 h
  IC50: > 50 µM
[5]; Homo sapiens, MDA-MB-231, 72 h
  IC50: 9.11 ± 0.39 µM
[1]
  RM0: 5.587
  logPTLC: 7.277
  -b: 0.064
other
  melting point: 133 to 134 °C

## C=C(C)[C@@H]1CC[C@]2(CO)CC[C@]3(C)[C@H](CC[C@@H]4[C@@]5(C)CC[C@H](O)C(C)(C)[C@@H]5CC[C@]43C)[C@@H]12 [Betulin]
[2]; Homo sapiens, C32, read-out: IC50 ± SD, C-32
  IC50: 15.6 ± 1.11 µM
[3]; Homo sapiens, SNB-19, read-out: IC50 ± SD, SNB-19
  IC50: 9.93 ± 0.25 µM
[4]; Homo sapiens, T47D, WST-1, 72 h
  IC50: > 50 µM
[5]; Homo sapiens, MDA-MB-231, WST-1, 72 h
  IC50: 7.76 ± 1.87 µM

## C=C(CP(=O)(OCC)OCC)[C@@H]1CC[C@]2(C(=O)O)CC[C@]3(C)C(CCC4[C@@]5(C)CCC(OC(C)=O)C(C)(C)C5CC[C@]43C)C12 (some centres unmarked) [R=30-P(O)(OC2H5)2, R1=CH3C(O)O, reference compound]
[2]; [8]
  IC50: 30.7 ± 2.17 µM
[3]; [9]
  IC50: 1.29 ± 0.15 µM

## C=C(COP(=O)(OCC)OCC)[C@@H]1CC[C@]2(C(=O)O)CC[C@]3(C)C(CCC4[C@@]5(C)CCC(O)C(C)(C)C5CC[C@]43C)C12 (some centres unmarked) [Compound 9]
[2]; [8]
  IC50: > 50 µM
[3]; [9]
  IC50: 5.98 ± 0.43 µM
[3]; SNB-19
  IC50 fold higher than 30-phosphonate derivative of 3-acetylbetulinic acid: more than 4.5 fold
[4]
  activity against T47D (in words): no activity
[5]
  activity against MDA-MB-231 (in words): no activity

## N.N.[Cl][Pt][Cl] [Cisplatin, reference compound]
[2]; read-out: IC50 ± SD, C-32
  IC50: 4.29 ± 0.65 µM
[3]; read-out: IC50 ± SD, SNB-19
  IC50: 5.29 ± 0.12 µM
[4]; WST-1, 72 h
  IC50: 6.26 ± 1.24 µM
[5]; WST-1, 72 h
  IC50: 5.47 ± 0.05 µM

## C=C(COP(=O)(OCC)OCC)[C@@H]1CC[C@]2(C(=O)O)CC[C@]3(C)C(CCC4[C@@]5(C)CCC(=O)C(C)(C)C5CC[C@]43C)C12 (some centres unmarked) [Compound 8]
[2]; [8]
  IC50: 45.7 ± 6.85 µM
[3]; [9]
  IC50: 45.8 ± 5.27 µM
[4]
  activity against T47D (in words): no activity
[5]
  activity against MDA-MB-231 (in words): no activity

## CCOP(=O)(C=C(C)C1CCC2(C(=O)O)CCC3(C)C(CCC4C5(C)CCC(O)C(C)(C)C5CCC43C)C12)OCC (centres unmarked) [R=29-P(O)(OC2H5)2, R1=OH, reference compound]
[2]; [8]
  IC50: 47.5 ± 2.96 µM
[3]; [9]
  IC50: 7.67 ± 1.57 µM

## C#CCOC(=O)OC[C@]12CC[C@@H](C(=C)COP(=O)(OCC)OCC)C1C1CCC3[C@@]4(C)CC[C@H](O)C(C)(C)C4CC[C@@]3(C)[C@]1(C)CC2 (some centres unmarked) [Compound 7e, 30-Diethoxyphosphoryloxy-28-propargyloxycarbonyloxybetulin]
[2]; [6]
  IC50: 3.97 ± 0.86 µM
[3]; [7]
  IC50: 1.59 ± 0.09 µM
[4]; Homo sapiens, T47D, 72 h
  IC50: > 50 µM
[1]
  RM0: 5.302
  logPTLC: 6.916
  -b: 0.063
other
  melting point: 172 to 174 °C

## C=C(CP(=O)(OCC)OCC)[C@@H]1CC[C@]2(C(=O)O)CC[C@]3(C)C(CCC4[C@@]5(C)CCC(O)C(C)(C)C5CC[C@]43C)C12 (some centres unmarked) [R=30-P(O)(OC2H5)2, R1=OH, reference compound]
[2]; [8]
  IC50: > 50 µM
[3]; [9]
  IC50: > 50 µM

## C#CCOC(=O)OC[C@]12CC[C@@H](C(=C)COP(=O)(OCC)OCC)C1C1CCC3[C@@]4(C)CC[C@H](OC(=O)OCC#C)C(C)(C)C4CC[C@@]3(C)[C@]1(C)CC2 (some centres unmarked) [Compound 6e, 30-Diethoxyphosphoryloxy-3,28-dipropargyloxycarbonyloxybetulin]
[2]; [6]
  IC50: 11.4 ± 0.76 µM
[3]; [7]
  IC50: 9.23 ± 0.57 µM
[4]; Homo sapiens, T47D, 72 h
  IC50: > 50 µM
[1]
  RM0: 6.490
  logPTLC: 8.419
  -b: 0.076
other
  melting point: 129 to 131 °C

## C=C(C)[C@@H]1CC[C@]2(C(=O)O)CC[C@]3(C)[C@H](CC[C@@H]4[C@@]5(C)CC[C@H](O)C(C)(C)[C@@H]5CC[C@]43C)[C@@H]12 [betulinic acid, reference compound]
[2]; Homo sapiens, C32, Table 5, betulonic/betulinic acid derivatives, read-out: IC50, C-32
  IC50: 8.63 ± 0.9 µM
[3]; Homo sapiens, SNB-19, Table 5, betulonic/betulinic acid derivatives, read-out: IC50, SNB-19
  IC50: 20.1 ± 1.26 µM
